Assay results: ChEMBL document CHEMBL1201862, “PubChem BioAssay data set” (2004)
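A five-concentration, 48-hour dose response in 96-well plates underlies each endpoint, interpolated linearly between surrounding concentrations. GI50 = concentration required for 50% inhibition of growth.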 Activity calls are given as the source filed them. Rule as the data show it: active = GI50 up to about 1.1 µM and inactive = higher.

Assays:
Test in all cases: growth of human tumour cells (NCI), 48 h
CCRF-CEM = tested on: CCRF-CEM
COLO 205 = tested on: COLO 205
HCT-116 = tested on: HCT-116
HCT-15 = tested on: HCT-15
HT-29 = tested on: HT-29
Hs-578T = tested on: Hs-578T
IGROV-1 = tested on: IGROV-1
LOX IMVI = tested on: LOX IMVI
M14 = tested on: M14
MDA-N = tested on: MDA-N
MOLT-4 = tested on: MOLT-4
NCI-H226 = tested on: NCI-H226
OVCAR-3 = tested on: OVCAR-3
PC-3 = tested on: PC-3
SK-MEL-28 = tested on: SK-MEL-28
SK-MEL-2 = tested on: SK-MEL-2
SK-OV-3 = tested on: SK-OV-3
SNB-19 = tested on: SNB-19
SNB-75 = tested on: SNB-75
UACC-257 = tested on: UACC-257

Row | SMILES | GI50 (CCRF-CEM) | GI50 (COLO 205) | GI50 (HCT-116) | GI50 (HCT-15) [µM] | GI50 (HT-29) | GI50 (Hs-578T) | GI50 (IGROV-1) | GI50 (LOX IMVI) | GI50 (M14) | GI50 (MDA-N) | GI50 (MOLT-4) | GI50 (NCI-H226) | GI50 (OVCAR-3) | GI50 (PC-3) | GI50 (SK-MEL-28) | GI50 (SK-MEL-2) | GI50 (SK-OV-3) | GI50 (SNB-19) | GI50 (SNB-75) | GI50 (UACC-257)
1 | CCOC(=O)C1CN(C2CC2)CCC1=O (stereo not given) | > 100 µM (inactive) | > 100 µM (inactive) | > 100 µM (inactive) | > 100 | > 100 µM (inactive) | > 100 µM (inactive) | > 100 µM (inactive) | > 100 µM (inactive) | > 100 µM (inactive) | > 100 µM (inactive) | > 100 µM (inactive) | > 100 µM (inactive) | > 100 µM (inactive) | > 100 µM (inactive) | > 100 µM (inactive) | > 100 µM (inactive) | > 100 µM (inactive) | > 100 µM (inactive) | > 100 µM (inactive) | > 100 µM (inactive)
2 | CCOC(=O)c1cn(CC)c2ccc3c(c2c1=O)S(=O)(=O)C=C3 | > 100 µM (inactive) | > 100 µM (inactive) | > 100 µM (inactive) | > 100 | > 100 µM (inactive) | 52.6 µM (inactive) | > 100 µM (inactive) | > 100 µM (inactive) | > 100 µM (inactive) | > 100 µM (inactive) | > 100 µM (inactive) | 63.7 µM (inactive) | > 100 µM (inactive) | > 100 µM (inactive) | > 100 µM (inactive) | 52.5 µM (inactive) | > 100 µM (inactive) | > 100 µM (inactive) | > 100 µM (inactive) | > 100 µM (inactive)
3 | C1CN(C23OC4(N5CCOCC5)C5C6CC(C7C6C4C72)C53)CCO1 (stereo not given) | > 100 µM (inactive) | > 100 µM (inactive) | > 100 µM (inactive) | > 100 | > 100 µM (inactive) | > 100 µM (inactive) | > 100 µM (inactive) | > 100 µM (inactive) | > 100 µM (inactive) | > 100 µM (inactive) | > 100 µM (inactive) | > 100 µM (inactive) | > 100 µM (inactive) | > 100 µM (inactive) | > 100 µM (inactive) | > 100 µM (inactive) | > 100 µM (inactive) | > 100 µM (inactive) | > 70.8 µM (inactive) | > 100 µM (inactive)
